Columns and labels:
[1] = Human liver microsomal stability assay (Test 1); type: in vitro ADME; settings: half-life in human liver microsomes, 0.5 μM test compound, 37° C., up to 45 min, NADPH-generating system, pH 7.4; read-out: Test 1 T1/2
Description: (Test 1) Human liver microsomal stability assay was conducted by incubating 0.5 μM test compound at 37° C. for up to 45 minutes in 50 mM potassium phosphate buffer (pH 7.4) containing 0.5 mg of microsomal protein and 50 μL of NADPH-generating system (7.8 mg of glucose 6-phosphate, 1.7 mg of NADPH and 6 U of glucose 6-phosphate dehydrogenase per mL in 2% w/v of sodium bicarbonate). At 0, 5, 15, 30 and 45 min, an aliquot was taken and quenched with internal standard-containing stop solution. No co-factor controls at 45 min were prepared. After incubation, the samples were analyzed by LC-MS/MS. Peak area ratios of analyte to internal standard were used to calculate the intrinsic clearance. The intrinsic clearance (CLint) was determined from the first-order elimination constant by non-linear regression.

[2] = Human plasma stability assay (Test 2); type: in vitro ADME; settings: half-life in heparinated human plasma, 0.5 μM test compound, 37° C.; read-out: Test 2 T1/2
Description: (Test 2) Human plasma stability assay was conducted by incubating 0.5 μM test compound at 37° C. for up to 120 min in heparinated human plasma. At 0, 5, 15, 30, 60, 120 and […], an aliquot was taken and quenched with internal standard-containing stop solution. After incubation, the samples were analyzed by LC-MS/MS. Peak area ratios of analyte to internal standard were used to calculate the half-life.

[3] = Human skin homogenate stability assay (Test 3); type: in vitro ADME; settings: half-life in human skin homogenate, 0.5 μM test compound, 37° C., up to 45 min, NADPH-generating system, pH 7.4; read-out: Test 3 T1/2
Description: At 0, 5, 15, 30 and 45 min, an aliquot was taken and quenched with internal standard-containing stop solution. No co-factor controls at 45 min were prepared. After incubation, the samples were analyzed by LC-MS/MS. Peak area ratios of analyte to internal standard were used to calculate the intrinsic clearance. The intrinsic clearance (CLin t) was determined from the first-order elimination constant by non-linear regression.

[4] = treprostinil as the free acid, cited from earlier work
PAH patients = settings: inhaled form; cited from earlier work

| half-life at 0.5 μM [1] [h] | half-life at 0.5 μM [2] [h] | half-life at 0.5 μM [3] [h] | Compound | absolute oral bioavailability ([4]; oral) | systemic half-life ([4]; due to significant metabolism) | PAH patients who cannot take inhaled treprostinil due to irritation (PAH patients) |
| --- | --- | --- | --- | --- | --- | --- |
| < 0.25 | > 1 | > 1 | CCCCC[C@H](O)CC[C@@H]1[C@H]2Cc3cccc(OCC(=O)O)c3C[C@H]2C[C@H]1OC(=O)OC [Compound Ia-10, [1-(3-hydroxyoctyl)-2-methoxycarbonyloxy-2,3,3a,4,9,9a-hexahydro-1H-cyclopenta[b]naphthalen-5-yloxy]acetic acid] | – | – | – |
| 0.517 to 1 | > 1 | > 1 | CCCCC[C@H](O)CC[C@@H]1[C@H]2Cc3cccc(OCC(=O)OCC(=O)O)c3C[C@H]2C[C@H]1O [II-1] | – | – | – |
| 0.517 to 1 | > 1 | > 1 | CCCCC[C@H](O)CC[C@@H]1[C@H]2Cc3cccc(OCC(=O)O[C@H](C)C(=O)O)c3C[C@H]2C[C@H]1O [II-2] | – | – | – |
| < 0.25 | > 1 | > 1 | CCCCC[C@H](O)CC[C@@H]1[C@H]2Cc3cccc(OCC(=O)O)c3C[C@H]2C[C@H]1OC(=O)CC [Compound Ia-1] | – | – | – |
| < 0.25 | > 1 | > 1 | CCCCC[C@H](O)CC[C@@H]1[C@H]2Cc3cccc(OCC(=O)O)c3C[C@H]2C[C@H]1OC(=O)COCC [Ia-9] | – | – | – |
| < 0.25 | > 1 | > 1 | CCCCC[C@H](O)CC[C@@H]1[C@H]2Cc3cccc(OCC(=O)O)c3C[C@H]2C[C@H]1OC(=O)CCCC [Ia-3] | – | – | – |
| – | – | – | CCCCC[C@H](O)CC[C@@H]1[C@H]2Cc3cccc(OCC(=O)O)c3C[C@H]2C[C@H]1O [Compound A, Treprostinil] | less than 10% | very short | about 50% |

| Compound | half-life at 0.5 μM [1] [h] | half-life at 0.5 μM [2] [h] | half-life at 0.5 μM [3] [h] | absolute oral bioavailability ([4]; oral) | systemic half-life ([4]; due to significant metabolism) | PAH patients who cannot take inhaled treprostinil due to irritation (PAH patients) |
| --- | --- | --- | --- | --- | --- | --- |
| CCCCC[C@@H](CC[C@@H]1[C@H]2Cc3cccc(OCC(=O)O)c3C[C@H]2C[C@H]1O)OC(=O)COC [Compound Ib-8, {2-hydroxy-1-[3-(2-methoxyacetoxy)octyl]-2,3,3a,4,9,9a-hexahydro-1H-cyclopenta[b]naphthalen-5-yloxy}acetic acid] | < 0.25 | > 1 | > 1 | – | – | – |
| CCCCCC(O)CCC1C(O)CC2Cc3c(cccc3OCC(=O)OCCC(=O)O)CC21 (stereo not drawn) [II-4, 3-{2-[2-hydroxy-1-(3-hydroxyoctyl)-2,3,3a,4,9,9a-hexahydro-1H-cyclopenta[b]naphthalen-5-yloxy]acetoxy}propionic acid] | 0.25 to 0.5 | > 1 | > 1 | – | – | – |

— patent US12643847B2, “Treprostinil derivatives and compositions and uses thereof” (CORSAIR PHARMA, INC., priority 2015, dated 2026)
